Measured values reported in patent US7576217B2, “Quinolines as allosteric enhancers of the GABAB receptors” (Hoffman-La Roche Inc., priority 2004, dated 2009).
Like-named read-outs stand apart in the source and are kept apart here.

Key:
[1] = PO, cited from earlier work
[2] = rats; cited from earlier work
[3] = biological target: T1, human GABABR1aR2a (Homo sapiens, UniProt O75899+Q9UBS5); assay: Intracellular Ca2+ mobilization assay in CHO-GABABR1aR2a-Gα16 cell (FLIPR); type: cell-based; conditions: for GABA shift Log [EC50(GABA + 10 μM cp)/EC50(GABA alone)]: GABA 0.0003-30 μM with and without 10 μM enhancer; for Emax: enhancer 0.001-30 μM in presence of 10 nM GABA (EC10), applied 15 min before GABA, read-out: Emax (%) at 10 nM GABA alone = 0% 10 μM GABA alone = 100%; for EC50: enhancer concentration-response in presence of 10 nM GABA (EC10)
T1 construct: expressed in transfected cells
Description: Intracellular Ca^2+ Mobilization Assay
The Chinese Hamster Ovary (CHO) cells stably expressing human GABABR1aR2a and Gα16 were seeded at 5×10^4 cells/well in the poly-D-lysine treated, 96-well, black/clear-bottomed plates (BD Biosciences, Palo Alto, Calif.). 24 h later, the cells were loaded for 90 min at 37° C. with 4 μM Flou-4 acetoxymethyl ester (Catalog No. F-14202, Molecular Probes, Eugene, Oreg.) in loading buffer (1×HBSS, 20 mM HEPES, 2.5 mM Probenecid). Hanks' Balanced Salt Solution (HBSS) (10×) (catalog No. 14065-049) and HEPES (1M) (catalog No. 15630-056) were purchased from Invitrogen, Carlsbad, Calif. Probenecid (250 mM) (catalog No. P8761) was from Sigma, Buchs, Switzerland. The cells were washed five times with loading buffer to remove excess dye and intracellular calcium mobilization, [Ca^2+]i were measured using a Fluorometric Imaging Plate Reader (FLIPR, Molecular Devices, Menlo Park, Calif.) as described previously (Porter et al., Br. J. Pharmacol., 128, 13-20, 1999). The enhancers were applied 15 min before the application of the GABA. For GABA shift assay, concentration-response curves of GABA (0.0003-30 μM) were determined in the absence and presence of […] enhancer. The GABA-shift is defined as Log [EC50 (GABA+10 μM enhancer)/EC50 (GABA alone)]. The % maximum enhancing effect (% Emax) and potency (EC50 value) of each enhancer was determined from concentration-response curve of the enhancer (0.001-30 μM) in the presence of 10 nM GABA (EC10). Responses were measured as peak increase in fluorescence minus basal, normalized to the maximal stimulatory effect induced by 10 μM GABA alone (considered 100%) and 10 nM GABA alone (considered 0%). The data were fitted with the equation Y=100+(Max−100)/(1+(EC50/[drug])^n) where Max is the maximum effect, EC50 the concentration eliciting a half-maximum effect and n the Hill slope.

[4] = cited from earlier work

T1 sequence (Q9UBS5 15-961 limits assumed): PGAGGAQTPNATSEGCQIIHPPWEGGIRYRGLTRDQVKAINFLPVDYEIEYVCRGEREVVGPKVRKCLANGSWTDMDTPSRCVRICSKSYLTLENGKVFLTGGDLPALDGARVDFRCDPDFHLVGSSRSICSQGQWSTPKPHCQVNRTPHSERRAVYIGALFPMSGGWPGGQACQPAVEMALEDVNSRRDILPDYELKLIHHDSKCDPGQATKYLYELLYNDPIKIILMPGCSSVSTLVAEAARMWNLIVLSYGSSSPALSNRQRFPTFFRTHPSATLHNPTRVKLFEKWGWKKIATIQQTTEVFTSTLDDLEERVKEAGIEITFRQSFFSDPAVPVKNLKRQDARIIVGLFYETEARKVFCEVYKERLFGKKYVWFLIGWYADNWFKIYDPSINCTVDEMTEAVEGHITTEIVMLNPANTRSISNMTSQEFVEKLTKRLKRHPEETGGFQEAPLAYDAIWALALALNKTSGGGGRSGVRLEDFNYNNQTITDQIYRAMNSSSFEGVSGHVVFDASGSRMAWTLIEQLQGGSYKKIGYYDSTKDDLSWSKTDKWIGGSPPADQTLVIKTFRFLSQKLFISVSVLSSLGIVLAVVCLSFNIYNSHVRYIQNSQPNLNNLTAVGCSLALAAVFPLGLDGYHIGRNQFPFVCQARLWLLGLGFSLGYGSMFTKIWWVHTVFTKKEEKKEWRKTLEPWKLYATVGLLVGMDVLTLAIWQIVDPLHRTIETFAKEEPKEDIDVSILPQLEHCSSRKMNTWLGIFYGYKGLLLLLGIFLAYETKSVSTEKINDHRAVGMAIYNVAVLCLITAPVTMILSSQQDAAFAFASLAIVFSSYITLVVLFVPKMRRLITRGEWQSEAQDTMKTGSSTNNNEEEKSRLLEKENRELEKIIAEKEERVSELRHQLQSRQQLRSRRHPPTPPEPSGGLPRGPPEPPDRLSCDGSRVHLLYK
T1 sequence (O75899 42-941): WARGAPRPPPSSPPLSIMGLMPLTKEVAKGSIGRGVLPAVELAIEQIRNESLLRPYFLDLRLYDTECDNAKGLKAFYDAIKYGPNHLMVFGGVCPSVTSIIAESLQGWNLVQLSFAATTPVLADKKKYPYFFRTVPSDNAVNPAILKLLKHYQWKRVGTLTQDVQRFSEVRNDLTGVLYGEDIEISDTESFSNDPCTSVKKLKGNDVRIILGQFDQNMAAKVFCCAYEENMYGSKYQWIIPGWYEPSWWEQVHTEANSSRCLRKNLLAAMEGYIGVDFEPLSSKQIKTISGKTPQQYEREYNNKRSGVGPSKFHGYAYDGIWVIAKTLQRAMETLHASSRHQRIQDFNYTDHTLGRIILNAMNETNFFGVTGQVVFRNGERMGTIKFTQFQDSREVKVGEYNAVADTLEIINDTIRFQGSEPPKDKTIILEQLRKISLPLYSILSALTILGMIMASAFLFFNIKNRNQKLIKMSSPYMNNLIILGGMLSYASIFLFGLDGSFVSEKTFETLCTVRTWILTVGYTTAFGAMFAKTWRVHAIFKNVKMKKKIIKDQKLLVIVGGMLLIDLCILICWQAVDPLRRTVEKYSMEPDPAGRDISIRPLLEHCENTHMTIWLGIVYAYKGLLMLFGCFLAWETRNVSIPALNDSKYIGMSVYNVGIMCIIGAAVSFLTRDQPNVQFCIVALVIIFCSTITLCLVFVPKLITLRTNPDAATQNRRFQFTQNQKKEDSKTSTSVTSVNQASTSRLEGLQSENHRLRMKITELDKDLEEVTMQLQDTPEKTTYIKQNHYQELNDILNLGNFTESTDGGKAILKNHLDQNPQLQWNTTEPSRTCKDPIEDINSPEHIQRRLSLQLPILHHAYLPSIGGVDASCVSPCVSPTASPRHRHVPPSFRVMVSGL

NCC(CC(=O)O)c1ccc(Cl)cc1 (stereo not drawn) [Baclofen, β-chlorophenyl GABA]
effect on spontaneous locomotor activity, rotarod, body temperature and traction test ([1]; 2.5-15 mg/kg): showed these side effects

CC(C)(CO)Cc1cc(C(C)(C)C)c(O)c(C(C)(C)C)c1 [CGP7930, 2,6-di-tert-butyl-4-(3-hydroxy-2,2-dimethyl-propyl)-phenol]
decreasing cocaine self-administration [2]: effective

Cc1nc2ccc(Br)cc2c(-c2ccccc2)c1C(=O)C(F)(F)F [Example 3, 1-(6-Bromo-2-methyl-4-phenyl-quinolin-3-yl)-2,2,2-trifluoro-ethanone]
GABA shift Log [EC50(GABA + 10 μM cp)/EC50(GABA alone)] [3]: −1.20
Emax [3]: 124%
EC50 [3]: 0.8 µM

Cc1nc2ccc(OC(F)(F)F)cc2c(-c2ccccc2)c1C(=O)C(F)(F)F [Example 11, 2,2,2-Trifluoro-1-(2-methyl-4-phenyl-6-trifluoromethoxy-quinolin-3-yl)-ethanone]
GABA shift Log [EC50(GABA + 10 μM cp)/EC50(GABA alone)] [3]: −1.00
Emax [3]: 65%
EC50 [3]: 0.8 µM

CC(=O)c1c(C)nc2ccc(OC(F)(F)F)cc2c1-c1cccc(Cl)c1 [Example 15, 1-[4-(3-Chloro-phenyl)-2-methyl-6-trifluoromethoxy-quinolin-3-yl]-ethanone]
GABA shift Log [EC50(GABA + 10 μM cp)/EC50(GABA alone)] [3]: −1.15
Emax [3]: 67%
EC50 [3]: 1.6 µM

Cc1nc2cc3c(cc2c(-c2ccccc2)c1C(=O)C(F)(F)F)OC(F)(F)O3 [Example 19, 1-(2,2-Difluoro-6-methyl-8-phenyl-[1,3]dioxolo[4,5-g]quinolin-7-yl)-2,2,2-trifluoro-ethanone]
GABA shift Log [EC50(GABA + 10 μM cp)/EC50(GABA alone)] [3]: −0.70
Emax [3]: 63%
EC50 [3]: 0.9 µM

Cc1nc2ccc(N3CCCCC3)cc2c(-c2ccc(F)cc2)c1C(=O)C(F)(F)F [Example 33, 2,2,2-Trifluoro-1-[4-(4-fluoro-phenyl)-2-methyl-6-piperidin-1-yl-quinolin-3-yl]-ethanone]
GABA shift Log [EC50(GABA + 10 μM cp)/EC50(GABA alone)] [3]: −0.90
Emax [3]: 62%
EC50 [3]: 0.33 µM

Cc1nc2ccc(Br)cc2c(-c2ccc(F)cc2)c1C(=O)C1CC1 [Example 56, [6-Bromo-4-(4-fluoro-phenyl)-2-methyl-quinolin-3-yl]-cyclopropyl-methanone]
GABA shift Log [EC50(GABA + 10 μM cp)/EC50(GABA alone)] [3]: −0.90
Emax [3]: 58%
EC50 [3]: 2.2 µM

CSc1nc(NC2CCCC2)c([N+](=O)[O-])c(NC2CCCC2)n1 [GS39783, N,N_-dicyclopentyl-2-methylsulfanyl-5-nitro-pyrimidine-4,6-diamine]
effect on spontaneous locomotor activity, rotarod, body temperature and traction test ([1]; 0.1-200 mg/kg): had no effect
tolerance after chronic treatment ([4]; 21 days, 10 mg/kg, P.O., once daily): No tolerance
anxiolytic-like effects ([4]; elevated plus maze (rat), elevated zero maze (mice and rats), stress-induced hyperthermia (mice)): exhibited anxiolytic-like effects
decreasing cocaine self-administration [2]: effective
